Experiments:
Assay type in all cases: in vivo
Abutilon (Abut) [1] = assay: Post-emergence herbicidal action (Example B2); design: key: 1=total damage; 9=no action; Ratings of from 1 to 4 (especially from 1 to 3) indicate good to very good herbicidal action; conditions: 1000 g of active compound per ha; post-emergence spray at 2- to 3-leaf stage; evaluated after 2 to 3 weeks; scale 1=total damage, 9=no action
Description: (§1) Monocotyledonous and dicotyledonous test plants are sown in standard soil in pots. When the test plants are at the 2- to 3-leaf stage, the test compounds, in the form of an aqueous suspension (prepared from a wettable powder (Example F3, b) according to WO 97/34485) or in the form of an emulsion (prepared from an emulsifiable concentrate (Example F1, c) according to WO 97/34485), are applied by spraying, in an optimum concentration (500 litres of water per ha). The test plants are then grown on in a greenhouse under optimum conditions. After a test duration of 2 to 3 weeks, the test is evaluated in accordance with a scale of nine ratings (1=total damage, 9=no action). Ratings of from 1 to 4 (especially from 1 to 3) indicate good to very good herbicidal action. Test plants. Panicum (Pani), Euphorbia (Euph), Abutilon (Abut), Amaranthus (Amara), Stellaria (Stell), Veronica (Vero).

Amaranthus (Amara) = assay: Post-emergence herbicidal action (Example B2); design: key: 1=total damage; 9=no action; Ratings of from 1 to 4 (especially from 1 to 3) indicate good to very good herbicidal action; conditions: 1000 g of active compound per ha; post-emergence spray at 2- to 3-leaf stage; evaluated after 2 to 3 weeks; scale 1=total damage, 9=no action
Description: as §1

Euphorbia (Euph) [2] = assay: Post-emergence herbicidal action (Example B2); design: key: 1=total damage; 9=no action; Ratings of from 1 to 4 (especially from 1 to 3) indicate good to very good herbicidal action; conditions: 1000 g of active compound per ha; post-emergence spray at 2- to 3-leaf stage; evaluated after 2 to 3 weeks; scale 1=total damage, 9=no action
Description: as §1

Panicum (Pani) [3] = assay: Post-emergence herbicidal action (Example B2); design: key: 1=total damage; 9=no action; Ratings of from 1 to 4 (especially from 1 to 3) indicate good to very good herbicidal action; conditions: 1000 g of active compound per ha; post-emergence spray at 2- to 3-leaf stage; evaluated after 2 to 3 weeks; scale 1=total damage, 9=no action
Description: as §1

Stellaria (Stell) [4] = assay: Post-emergence herbicidal action (Example B2); design: key: 1=total damage; 9=no action; Ratings of from 1 to 4 (especially from 1 to 3) indicate good to very good herbicidal action; conditions: 1000 g of active compound per ha; post-emergence spray at 2- to 3-leaf stage; evaluated after 2 to 3 weeks; scale 1=total damage, 9=no action
Description: as §1

Veronica (Vero) = assay: Post-emergence herbicidal action (Example B2); design: key: 1-9 scale: 1 = total damage, 9 = no action; conditions: 1000 g of active compound per ha; post-emergence spray at 2- to 3-leaf stage; evaluated after 2 to 3 weeks; scale 1=total damage, 9=no action
Description: as §1

Abutilon (Abut) [5] = assay: Pre-emergence herbicidal action (Example B1); design: key: 1=total damage; 9=no action; Ratings of from 1 to 4 (especially from 1 to 3) indicate good to very good herbicidal action; conditions: 1000 g of active compound per ha; sprayed immediately after sowing; evaluated after 4 weeks; scale of nine ratings (1=total damage, 9=no action)
Description: (§2) Monocotyledonous and dicotyledonous test plants are sown in standard soil in pots. Immediately after sowing, the test compounds, in the form of an aqueous suspension (prepared from a wettable powder (Example F3, b) according to WO 97/34485) or in the form of an emulsion (prepared from an emulsifiable concentrate (Example F1, c) according to WO 97/34485), are applied by spraying, in an optimum concentration (500 litres of water per ha). The test plants are then grown in a greenhouse under optimum conditions. After a test duration of 4 weeks, the test is evaluated in accordance with a scale of nine ratings (1=total damage, 9=no action). Ratings of from 1 to 4 (especially from 1 to 3) indicate good to very good herbicidal action. Test plants: Panicum (Pani), Digitaria (Digit), Euphorbia (Euph), Sida, Abutilon (Abut), Amaranthus (Amar), Chenopodium (Cheno), Stellaria (Stell).

Amaranthus (Amar) = assay: Pre-emergence herbicidal action (Example B1); design: key: 1=total damage; 9=no action; Ratings of from 1 to 4 (especially from 1 to 3) indicate good to very good herbicidal action; conditions: 1000 g of active compound per ha; sprayed immediately after sowing; evaluated after 4 weeks; scale of nine ratings (1=total damage, 9=no action)
Description: as §2

Chenopodium (Cheno) = assay: Pre-emergence herbicidal action (Example B1); design: key: 1=total damage; 9=no action; Ratings of from 1 to 4 (especially from 1 to 3) indicate good to very good herbicidal action; conditions: 1000 g of active compound per ha; sprayed immediately after sowing; evaluated after 4 weeks; scale of nine ratings (1=total damage, 9=no action)
Description: as §2

Digitaria (Digit) = assay: Pre-emergence herbicidal action (Example B1); design: key: 1=total damage; 9=no action; Ratings of from 1 to 4 (especially from 1 to 3) indicate good to very good herbicidal action; conditions: 1000 g of active compound per ha; sprayed immediately after sowing; evaluated after 4 weeks; scale of nine ratings (1=total damage, 9=no action)
Description: as §2

Euphorbia (Euph) [6] = assay: Pre-emergence herbicidal action (Example B1); design: key: 1=total damage; 9=no action; Ratings of from 1 to 4 (especially from 1 to 3) indicate good to very good herbicidal action; conditions: 1000 g of active compound per ha; sprayed immediately after sowing; evaluated after 4 weeks; scale of nine ratings (1=total damage, 9=no action)
Description: as §2

Panicum (Pani) [7] = assay: Pre-emergence herbicidal action (Example B1); design: key: 1=total damage; 9=no action; Ratings of from 1 to 4 (especially from 1 to 3) indicate good to very good herbicidal action; conditions: 1000 g of active compound per ha; sprayed immediately after sowing; evaluated after 4 weeks; scale of nine ratings (1=total damage, 9=no action)
Description: as §2

Sida = assay: Pre-emergence herbicidal action (Example B1); design: key: 1=total damage; 9=no action; Ratings of from 1 to 4 (especially from 1 to 3) indicate good to very good herbicidal action; conditions: 1000 g of active compound per ha; sprayed immediately after sowing; evaluated after 4 weeks; scale of nine ratings (1=total damage, 9=no action)
Description: as §2

Stellaria (Stell) [8] = assay: Pre-emergence herbicidal action (Example B1); design: key: 1=total damage; 9=no action; Ratings of from 1 to 4 (especially from 1 to 3) indicate good to very good herbicidal action; conditions: 1000 g of active compound per ha; sprayed immediately after sowing; evaluated after 4 weeks; scale of nine ratings (1=total damage, 9=no action)
Description: as §2

Compound: COc1nc(C)ncc1OCC#Cc1cccc(CC#N)c1 [4.033]
- Post-emergence herbicidal action rating, Abut (Abutilon (Abut) [1]): 3
- Post-emergence herbicidal action rating, Amar (Amaranthus (Amara)): 3
- Post-emergence herbicidal action rating, Euph (Euphorbia (Euph) [2]): 2
- Post-emergence herbicidal action rating, Pani (Panicum (Pani) [3]): 2
- Post-emergence herbicidal action rating, Stell (Stellaria (Stell) [4]): 2
- Post-emergence herbicidal action rating, Vero (Veronica (Vero)): 4

Compound: N#CCc1cccc(C#CCOc2ncc(F)cn2)c1 [7.008]
- Post-emergence herbicidal action rating, Abut (Abutilon (Abut) [1]): 2
- Post-emergence herbicidal action rating, Amar (Amaranthus (Amara)): 2
- Post-emergence herbicidal action rating, Euph (Euphorbia (Euph) [2]): 2
- Post-emergence herbicidal action rating, Pani (Panicum (Pani) [3]): 2
- Post-emergence herbicidal action rating, Stell (Stellaria (Stell) [4]): 2
- Post-emergence herbicidal action rating, Vero (Veronica (Vero)): 2

Compound: N#CCc1cccc(C#CCOc2ncc(Cl)cn2)c1 [7.021]
- Post-emergence herbicidal action rating, Abut (Abutilon (Abut) [1]): 2
- Post-emergence herbicidal action rating, Amar (Amaranthus (Amara)): 1
- Post-emergence herbicidal action rating, Euph (Euphorbia (Euph) [2]): 1
- Post-emergence herbicidal action rating, Pani (Panicum (Pani) [3]): 2
- Post-emergence herbicidal action rating, Stell (Stellaria (Stell) [4]): 3
- Post-emergence herbicidal action rating, Vero (Veronica (Vero)): 3

Compound: N#CCc1cc(C#CCOc2ncc(F)cn2)ccc1F [7.027]
- Post-emergence herbicidal action rating, Abut (Abutilon (Abut) [1]): 4
- Post-emergence herbicidal action rating, Amar (Amaranthus (Amara)): 2
- Post-emergence herbicidal action rating, Euph (Euphorbia (Euph) [2]): 2
- Post-emergence herbicidal action rating, Pani (Panicum (Pani) [3]): 1
- Post-emergence herbicidal action rating, Stell (Stellaria (Stell) [4]): 3
- Post-emergence herbicidal action rating, Vero (Veronica (Vero)): 4

Compound: N#CCc1ccc(F)c(C#CCOc2ncc(Cl)cn2)c1 [7.028]
- Post-emergence herbicidal action rating, Amar (Amaranthus (Amara)): 1
- Post-emergence herbicidal action rating, Euph (Euphorbia (Euph) [2]): 1
- Post-emergence herbicidal action rating, Stell (Stellaria (Stell) [4]): 1
- Post-emergence herbicidal action rating, Vero (Veronica (Vero)): 2

Compound: N#CCc1cc(C#CCOc2ncc(Cl)cn2)c(F)cc1F [7.031]
- Post-emergence herbicidal action rating, Abut (Abutilon (Abut) [1]): 3
- Post-emergence herbicidal action rating, Amar (Amaranthus (Amara)): 2
- Post-emergence herbicidal action rating, Euph (Euphorbia (Euph) [2]): 3
- Post-emergence herbicidal action rating, Pani (Panicum (Pani) [3]): 2
- Post-emergence herbicidal action rating, Stell (Stellaria (Stell) [4]): 3
- Post-emergence herbicidal action rating, Vero (Veronica (Vero)): 2

Compound: COc1nc(Cl)cnc1OCC#Cc1cccc(CC#N)c1 [Compound 1.041, {3-[3-(5-chloro-3-methoxy-pyrazin-2-yloxy)-prop-1-ynyl]-phenyl}-acetonitrile]
- Pre-emergence herbicidal action rating, Abut (Abutilon (Abut) [5]): 1
- Pre-emergence herbicidal action rating, Amar (Amaranthus (Amar)): 1
- Pre-emergence herbicidal action rating, Cheno (Chenopodium (Cheno)): 1
- Pre-emergence herbicidal action rating, Digit (Digitaria (Digit)): 1
- Pre-emergence herbicidal action rating, Euph (Euphorbia (Euph) [6]): 1
- Pre-emergence herbicidal action rating, Pani (Panicum (Pani) [7]): 1
- Pre-emergence herbicidal action rating, Sida (Sida): 1
- Pre-emergence herbicidal action rating, Stell (Stellaria (Stell) [8]): 1
- Post-emergence herbicidal action rating, Abut (Abutilon (Abut) [1]): 2
- Post-emergence herbicidal action rating, Amar (Amaranthus (Amara)): 2
- Post-emergence herbicidal action rating, Euph (Euphorbia (Euph) [2]): 1
- Post-emergence herbicidal action rating, Pani (Panicum (Pani) [3]): 2
- Post-emergence herbicidal action rating, Stell (Stellaria (Stell) [4]): 2
- Post-emergence herbicidal action rating, Vero (Veronica (Vero)): 2

Compound: COc1nccnc1OCC#Cc1cccc(CC#N)c1 [Compound 1.048]
- Pre-emergence herbicidal action rating, Abut (Abutilon (Abut) [5]): 1
- Pre-emergence herbicidal action rating, Amar (Amaranthus (Amar)): 1
- Pre-emergence herbicidal action rating, Cheno (Chenopodium (Cheno)): 1
- Pre-emergence herbicidal action rating, Digit (Digitaria (Digit)): 2
- Pre-emergence herbicidal action rating, Euph (Euphorbia (Euph) [6]): 1
- Pre-emergence herbicidal action rating, Pani (Panicum (Pani) [7]): 4
- Pre-emergence herbicidal action rating, Sida (Sida): 1
- Pre-emergence herbicidal action rating, Stell (Stellaria (Stell) [8]): 1
- Post-emergence herbicidal action rating, Abut (Abutilon (Abut) [1]): 3
- Post-emergence herbicidal action rating, Amar (Amaranthus (Amara)): 1
- Post-emergence herbicidal action rating, Euph (Euphorbia (Euph) [2]): 1
- Post-emergence herbicidal action rating, Pani (Panicum (Pani) [3]): 4
- Post-emergence herbicidal action rating, Stell (Stellaria (Stell) [4]): 2
- Post-emergence herbicidal action rating, Vero (Veronica (Vero)): 2

Compound: COc1cncnc1OCC#Cc1cccc(CC#N)c1 [Compound 5.025, {3-[3-(5-methoxy-pyrimidin-4-yloxy)-prop-1-ynyl]-phenyl}-acetonitrile]
- Post-emergence herbicidal action rating, Abut (Abutilon (Abut) [1]): 1
- Post-emergence herbicidal action rating, Amar (Amaranthus (Amara)): 4
- Post-emergence herbicidal action rating, Euph (Euphorbia (Euph) [2]): 1
- Post-emergence herbicidal action rating, Pani (Panicum (Pani) [3]): 2
- Post-emergence herbicidal action rating, Stell (Stellaria (Stell) [4]): 1
- Post-emergence herbicidal action rating, Vero (Veronica (Vero)): 4

Compound: N#CCc1cccc(C#CCOc2ncc(Br)cn2)c1 [Compound 7.006]
- Pre-emergence herbicidal action rating, Abut (Abutilon (Abut) [5]): 2
- Pre-emergence herbicidal action rating, Cheno (Chenopodium (Cheno)): 1
- Pre-emergence herbicidal action rating, Euph (Euphorbia (Euph) [6]): 1
- Pre-emergence herbicidal action rating, Pani (Panicum (Pani) [7]): 2
- Pre-emergence herbicidal action rating, Stell (Stellaria (Stell) [8]): 1
- Post-emergence herbicidal action rating, Abut (Abutilon (Abut) [1]): 3
- Post-emergence herbicidal action rating, Amar (Amaranthus (Amara)): 2
- Post-emergence herbicidal action rating, Euph (Euphorbia (Euph) [2]): 1
- Post-emergence herbicidal action rating, Pani (Panicum (Pani) [3]): 5
- Post-emergence herbicidal action rating, Stell (Stellaria (Stell) [4]): 4
- Post-emergence herbicidal action rating, Vero (Veronica (Vero)): 5

Compound: N#CCc1cc(C#CCOc2ncc(Cl)cn2)ccc1F [Compound 7.022]
- Pre-emergence herbicidal action rating, Abut (Abutilon (Abut) [5]): 1
- Pre-emergence herbicidal action rating, Amar (Amaranthus (Amar)): 1
- Pre-emergence herbicidal action rating, Cheno (Chenopodium (Cheno)): 3
- Pre-emergence herbicidal action rating, Digit (Digitaria (Digit)): 1
- Pre-emergence herbicidal action rating, Euph (Euphorbia (Euph) [6]): 3
- Pre-emergence herbicidal action rating, Pani (Panicum (Pani) [7]): 1
- Pre-emergence herbicidal action rating, Sida (Sida): 1
- Pre-emergence herbicidal action rating, Stell (Stellaria (Stell) [8]): 1
- Post-emergence herbicidal action rating, Amar (Amaranthus (Amara)): 1
- Post-emergence herbicidal action rating, Euph (Euphorbia (Euph) [2]): 1
- Post-emergence herbicidal action rating, Pani (Panicum (Pani) [3]): 2
- Post-emergence herbicidal action rating, Stell (Stellaria (Stell) [4]): 3
- Post-emergence herbicidal action rating, Vero (Veronica (Vero)): 2

Reference: patent US20050202973A1, “Aryl-alkyne compounds as herbicides” (priority 2002, published 2005)
